Where two headings read alike, the source gives them in different places.
Tests used:
topoisomerase II = conditions: Nelson et al. 1984; Pommier et al. 1985; cited from earlier work
solid tumors = conditions: Casper et al. 1980; cited from earlier work
DNA [1] = conditions: Wilson et al. 1984; cited from earlier work
DNA [2] = conditions: Nelson et al. 1984; Pommier et al. 1985; cited from earlier work
[3] = 37° C.; cited from earlier work
[4] = system: human leukemia HL-60 cells; assay: In vitro cytotoxicity, growth inhibition of human leukemia HL-60 cells; format: cell-based
experimental tumors = conditions: Corbett et al. 1977; Goldin et al. 1981; cited from earlier work
L1210 leukemia = conditions: Cain et al., J. Med. Chem. 1975; cited from earlier work
[5] = system: mouse leukemia L1210 cells; assay: In vitro cytotoxicity, growth inhibition of mouse leukemia L1210 cells; format: cell-based
L1210 tumor = assay: Chemotherapeutic effects on L1210 tumor bearing BDF^1 mice; format: in vivo, mouse; conditions: day 1, QD × 4 + Day 7, QD × 2; for % Increase in lifespan: 25% or greater indicates therapeutic activity; for Average survival time: control 7.2 days
Source text: Table 2 lists typical examples of chemotherapeutic effects of 3-(9-acridinylamino)-5-hydroxymethylaniline derivatives of formula I on L1210 tumor bearing BDF^1 mice in vivo.
^a Female mice, 19-21 grams, inoculated with 10^6 L1210 cells i.p
treatment schedule was day 1, QD × 4 + Day 7, QD × 2, i.p.

[6] = Lethal doses to BDF^1 mice; format: in vivo; conditions: i.p.
Source text: ^b Lethal Doses of these compounds to BDF^1 mice have been

[7] = human leukemia HL-60, read-out: IC50 for Cell growth Inhibition, HL60
[8] = mouse leukemia L1210, read-out: IC50 for Cell growth Inhibition, L1210

Compound | IC50 [4, 7] | IC50 [5, 8] | % Increase in lifespan (L1210 tumor; 5 mg/kg i.p.) | Average weight change, Day 7 (L1210 tumor; 5 mg/kg i.p.) | Average survival time (L1210 tumor; 5 mg/kg i.p.) | % Increase in lifespan (L1210 tumor; 10 mg/kg i.p.) | Average weight change, Day 7 (L1210 tumor; 10 mg/kg i.p.) | Average survival time (L1210 tumor; 10 mg/kg i.p.) | % Increase in lifespan (L1210 tumor; 20 mg/kg i.p.) | Average weight change, Day 7 (L1210 tumor; 20 mg/kg i.p.) | Average weight change, Day 11 (L1210 tumor; 20 mg/kg i.p.) | Average survival time (L1210 tumor; 20 mg/kg i.p.) | Lethal dose to BDF^1 mice ([6]; QD Day 1-Day 4, Day 7-Day 8) | also measured
COc1cc(NS(C)(=O)=O)ccc1Nc1c2ccccc2nc2ccccc12 [m-AMSA, 4'-(9-acridinylamino)methanesulfon-m-anisidide] |  |  |  |  |  |  |  |  |  |  |  |  |  | topoisomerase II inhibition (topoisomerase II): topoisomerase II inhibitor; activity against a number of solid tumors during Phase II trials (solid tumors): inactive; chromosomal aberrations and DNA damage (DNA [1]): induced chromosomal aberrations and DNA damage; DNA intercalation (DNA [2]): DNA intercalator; half life in the presence of fresh mouse blood [3]: about 23 minutes; IC50 ([4]; Homo sapiens, HL-60, read-out: IC50 for Cell growth Inhibition, HL60): 80 nM; activity against a spectrum of experimental tumors (experimental tumors): high activity; activity against the L1210 leukemia (L1210 leukemia): high activity; IC50 ([5]; Mus musculus, L1210, read-out: IC50 for Cell growth Inhibition, L1210): 4 nM
O=C(O)CCC(=O)Nc1cc(COC(=O)CCC(=O)O)cc(Nc2c3ccccc3nc3ccccc23)c1 [Id, 3-(9-acridinylamino)-5-succinyloxymethyl-N-succinylaniline] | 859 nM | 2000 nM |  |  |  |  |  |  |  |  |  |  |  | 
O=C(O)CCC(=O)Nc1cc(CO)cc(Nc2c3ccccc3nc3ccccc23)c1 [Ie, 3-(9-acridinylamino)-5-hydroxymethyl-N-succinylaniline] | 999 nM | 1070 nM |  |  |  |  |  |  |  |  |  |  |  | 
CC(=O)CCC(=O)Nc1cc(CO)cc(Nc2c3ccccc3nc3ccccc23)c1 [Ic, 3-(9-acridinylamino)-5-hydroxymethyl-N-acetonylacetylaniline] | 5 nM | 73 nM | 53% | +2.0 grams | 11.0 days | 25% | +1.5 grams | 9.0 days | 192% | -1.5 grams | -2.0 grams | 21.0 days | 50 mg/kg | 
Nc1cc(CO)cc(Nc2c3ccccc3nc3ccccc23)c1 [Ia, 3-(9-acridinylamino)-5-hydroxymethylaniline] | 97 nM | 26 nM | 94% | +1.0 grams | 14.0 days | 108% | -0.5 grams | 15.0 days |  |  |  |  |  | Average weight change, Day 11 (L1210 tumor; 5 mg/kg i.p.): +2.0 grams; Average weight change, Day 11 (L1210 tumor; 10 mg/kg i.p.): +0.0 grams; Lethal dose to BDF^1 mice ([6]; QD Day 1-Day 4 + Day 7): 20 mg/kg
CC(=O)CCC(=O)Nc1cc(COC(=O)CCC(C)=O)cc(Nc2c3ccccc3nc3ccccc23)c1 [Ib, 3-(9-acridinylamino)-N,O-bis(acetonylacetyl)-5-hydroxymethylaniline] | 3 nM | 98 nM | 25% | +2.0 grams | 9.0 days | 53% | +2.0 grams | 11.0 days | 94% | -3.0 grams | -4.0 grams | 14.0 days | 50 mg/kg | 

Reference: US5354864A, “3-(9-acridinylamino)-5-hydroxymethylaniline derivatives as anticancer agents” (Sloan-Kettering Institute for Cancer Research, priority 1992, dated 1994)
